# Assay results as given in patent US11339161B2, “Triazolo pyridines as modulators of gamma-secretase” (Boehringer Ingelheim International GmbH, priority 2017, dated 2022).
# Where two headings read alike, the source gives them in different places.
# Columns and labels:
# CDK5/p35 = CDK5/p35 (Homo sapiens, UniProt Q00535); assay: Z'-LYTE SelectScreen biochemical kinase assay CDK5/p35
# From the text: (§1) Thermo Fisher Scientific SelectScreen™ Biochemical Kinase Profiling Service Z′-LYTE™ Screening Protocol and Assay Conditions Assay Theory
# (§2) The […] biochemical assay employs a fluorescence-based, coupled-enzyme format and is based on the differential sensitivity of phosphorylated and non-phosphorylated peptides to proteolytic cleavage. The peptide substrate is labeled with two fluorophores—one at each end—that make up a FRET pair. In the primary reaction, the kinase transfers the gamma-phosphate of ATP to a single tyrosine, serine or threonine residue in a synthetic FRET-peptide. In the secondary reaction, a site-specific protease recognizes and cleaves non-phosphorylated FRET-peptides. Phosphorylation of FRET-peptides suppresses cleavage by the Development Reagent. Cleavage disrupts FRET between the donor (i.e., coumarin) and acceptor (i.e., fluorescein) fluorophores on the FRET-peptide, whereas uncleaved, phosphorylated FRET-peptides maintain FRET. A ratiometric method, which calculates the ratio (Emission Ratio=Coumarin emission (445 nm)/Fluorescein emission (520 nm)) of donor emission to acceptor emission after excitation of the donor fluorophore at 400 nm, is used to quantitate reaction progress, as shown in the equation below. A significant benefit of this ratiometric method for quantitating reaction progress is the elimination of well-to-well variations in FRET-peptide concentration and signal intensities. As a result, the assay yields very high Z′-factor values (>0.7) at a low percent phosphorylation. Both cleaved and uncleaved FRET-peptides contribute to the fluorescence signals and therefore to the Emission Ratio. The extent of phosphorylation of the FRET-peptide can be calculated from the Emission Ratio. The Emission Ratio will remain low if the FRET-peptide is phosphorylated (i.e., no kinase inhibition) and will be high if the FRET-peptide is non-phosphorylated (i.e., kinase inhibition).
# (§3) The Test Compounds are screened in 1% DMSO (final) in the well. For 10 point titrations, 3-fold serial dilutions are conducted from the starting concentration of the customer's choosing.
# (§4) All Peptide/Kinase Mixtures are diluted to a 2× working concentration in the appropriate Kinase Buffer (see section Kinase Specific Assay Conditions for a complete description).
# (§5) All ATP Solutions are diluted to a 4× working concentration in Kinase Buffer (50 mM HEPES pH 7.5, 0.01% BRIJ-35, 10 mM MgCl2, 1 mM EGTA). ATP Km apparent is previously determined using a Z″-LYTE assay.
# (§6) The Development Reagent is diluted in Development Buffer (see section Kinase-Specific Assay Conditions—Direct and Cascade for a complete description).
# (§7) Bar-coded Corning, low volume NBS, black 384-well plate (Corning Cat. #4514) • 1. 100 nL—100× Test Compound in 100% DMSO • 2. 2.4 μL—Kinase buffer • 3. 5 μL—2× Peptide/Kinase Mixture • 4. 2.5 μL—4×ATP Solution • 5. 30—second plate shake • 6. 60—minute Kinase Reaction incubation at room temperature • 7. 5 μL—Development Reagent Solution • 8. 30—second plate shake • 9. 60—minute Development Reaction incubation at room temperature • 10. Read on fluorescence plate reader and analyze the data Z′-LYTE Assay Controls
# (§8) SelectScreen Kinase Profiling Service uses XLfit from IDBS. The dose response curve is curve fit to model number 205 (sigmoidal dose-response model).
# (§9) The 2×CDK5/p35/Ser/Thr 12 mixture is prepared in 50 mM HEPES pH 7.5, 0.01% BRIJ-35, 10 mM MgCl2, 1 mM EGTA. The final 10 μL Kinase Reaction consists of 0.14-1.3 ng CDK5/p35 and 2 μM Ser/Thr 12 in 50 mM HEPES pH 7.5, 0.01% BRIJ-35, 10 mM MgCl2, 1 mM EGTA. After the 1 hour Kinase Reaction incubation, 5 μL of a 1:4096 dilution of Development Reagent A is added.
# KDR (VEGFR2) = KDR (VEGFR2) (Homo sapiens, UniProt P35968); assay: Z'-LYTE SelectScreen biochemical kinase assay KDR (VEGFR2)
# From the text: as §1, §2, §3, §4, §5, §6, §7, §8
# The 2×KDR (VEGFR2)/Tyr 01 mixture is prepared in 50 mM HEPES pH 7.5, 0.01% BRIJ-35, 10 mM MgCl2, 1 mM EGTA. The final 10 μL Kinase Reaction consists of 1-30 ng KDR (VEGFR2) and 2 μM Tyr 01 in 50 mM HEPES pH 7.5, 0.01% BRIJ-35, 10 mM MgCl2, 1 mM EGTA. After the 1 hour Kinase Reaction incubation, 5 μL of a 1:256 dilution of Development Reagent B is added.
# PDGFRA (PDGFR alpha) = PDGFRA (PDGFR alpha) (Homo sapiens, UniProt P16234); assay: Z'-LYTE SelectScreen biochemical kinase assay PDGFRA (PDGFR alpha)
# From the text: as §1, §2, §3, §4, §5, §6, §7, §8
# The 2×PDGFRA (PDGFR alpha)/Tyr 04 mixture is prepared in 50 mM HEPES pH 7.5, 0.01% BRIJ-35, 10 mM MgCl2, 4 mM MnCl2, 1 mM EGTA, 2 mM DTT. The final 10 μL Kinase Reaction consists of 1.54-22.6 ng PDGFRA (PDGFR alpha) and 2 μM Tyr 04 in 50 mM HEPES pH 7.5, 0.01% BRIJ-35, 10 mM MgCl2, 2 mM MnCl2, 1 mM EGTA, 1 mM DTT. After the 1 hour Kinase Reaction incubation, 5 μL of a 1:64 dilution of Development Reagent B is added.
# RET = RET (Homo sapiens, UniProt P07949); assay: Z'-LYTE SelectScreen biochemical kinase assay RET
# From the text: as §1, §2, §3, §4, §5, §6, §7, §8
# as §9, with “2×RET/Tyr 02” for “2×CDK5/p35/Ser/Thr 12”, “0.49-3.64” for “0.14-1.3”, “RET” for “CDK5/p35”, “Tyr 02” for “Ser/Thr 12”, “1:128” for “1:4096”
# [1] = 10 μmolar compound concentration, ATP at Km app, read-out: CDK5/p35 inhibition
# [2] = read-out: % Inhibition mean CDK5/p35
# [3] = 10 μmolar compound concentration, ATP at Km app, read-out: KDR (VEGFR2) inhibition
# [4] = read-out: % Inhibition mean KDR (VEGFR2)
# [5] = 10 μmolar compound concentration, ATP at Km app, read-out: PDGFRA (PDGFR alpha) inhibition
# [6] = read-out: % Inhibition mean PDGFRA (PDGFR alpha)
# [7] = 10 μmolar compound concentration, ATP at Km app, read-out: RET inhibition
# [8] = read-out: % Inhibition mean RET
# Sequence of RET (P07949 29-1114): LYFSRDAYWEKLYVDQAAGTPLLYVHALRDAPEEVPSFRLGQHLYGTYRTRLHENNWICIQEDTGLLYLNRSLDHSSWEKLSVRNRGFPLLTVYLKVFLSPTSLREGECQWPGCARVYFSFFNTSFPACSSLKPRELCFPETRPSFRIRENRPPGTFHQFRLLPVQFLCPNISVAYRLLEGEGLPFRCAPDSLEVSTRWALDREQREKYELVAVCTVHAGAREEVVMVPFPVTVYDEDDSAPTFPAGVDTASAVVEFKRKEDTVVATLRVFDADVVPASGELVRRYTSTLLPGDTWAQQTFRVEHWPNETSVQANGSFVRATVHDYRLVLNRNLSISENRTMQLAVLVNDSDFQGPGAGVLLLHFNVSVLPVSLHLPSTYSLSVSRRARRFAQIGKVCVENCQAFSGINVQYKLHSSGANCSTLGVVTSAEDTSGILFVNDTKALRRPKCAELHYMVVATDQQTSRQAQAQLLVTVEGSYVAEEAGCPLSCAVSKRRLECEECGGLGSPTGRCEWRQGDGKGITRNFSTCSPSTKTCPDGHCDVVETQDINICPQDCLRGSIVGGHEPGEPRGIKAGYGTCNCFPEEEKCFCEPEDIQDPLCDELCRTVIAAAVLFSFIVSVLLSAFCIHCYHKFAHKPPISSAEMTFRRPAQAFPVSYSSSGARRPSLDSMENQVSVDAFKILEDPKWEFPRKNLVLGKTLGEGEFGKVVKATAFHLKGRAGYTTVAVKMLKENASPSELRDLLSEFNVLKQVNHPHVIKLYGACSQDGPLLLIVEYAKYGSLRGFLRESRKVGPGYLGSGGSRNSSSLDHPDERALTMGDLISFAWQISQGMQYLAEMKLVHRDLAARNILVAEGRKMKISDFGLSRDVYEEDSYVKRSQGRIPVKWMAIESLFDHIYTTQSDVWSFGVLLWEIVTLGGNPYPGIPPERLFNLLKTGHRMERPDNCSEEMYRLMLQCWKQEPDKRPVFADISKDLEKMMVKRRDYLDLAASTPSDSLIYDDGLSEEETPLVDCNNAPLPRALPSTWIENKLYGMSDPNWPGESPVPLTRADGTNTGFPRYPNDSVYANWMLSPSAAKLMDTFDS
# Sequence of PDGFRA (PDGFR alpha) (P16234 24-1089): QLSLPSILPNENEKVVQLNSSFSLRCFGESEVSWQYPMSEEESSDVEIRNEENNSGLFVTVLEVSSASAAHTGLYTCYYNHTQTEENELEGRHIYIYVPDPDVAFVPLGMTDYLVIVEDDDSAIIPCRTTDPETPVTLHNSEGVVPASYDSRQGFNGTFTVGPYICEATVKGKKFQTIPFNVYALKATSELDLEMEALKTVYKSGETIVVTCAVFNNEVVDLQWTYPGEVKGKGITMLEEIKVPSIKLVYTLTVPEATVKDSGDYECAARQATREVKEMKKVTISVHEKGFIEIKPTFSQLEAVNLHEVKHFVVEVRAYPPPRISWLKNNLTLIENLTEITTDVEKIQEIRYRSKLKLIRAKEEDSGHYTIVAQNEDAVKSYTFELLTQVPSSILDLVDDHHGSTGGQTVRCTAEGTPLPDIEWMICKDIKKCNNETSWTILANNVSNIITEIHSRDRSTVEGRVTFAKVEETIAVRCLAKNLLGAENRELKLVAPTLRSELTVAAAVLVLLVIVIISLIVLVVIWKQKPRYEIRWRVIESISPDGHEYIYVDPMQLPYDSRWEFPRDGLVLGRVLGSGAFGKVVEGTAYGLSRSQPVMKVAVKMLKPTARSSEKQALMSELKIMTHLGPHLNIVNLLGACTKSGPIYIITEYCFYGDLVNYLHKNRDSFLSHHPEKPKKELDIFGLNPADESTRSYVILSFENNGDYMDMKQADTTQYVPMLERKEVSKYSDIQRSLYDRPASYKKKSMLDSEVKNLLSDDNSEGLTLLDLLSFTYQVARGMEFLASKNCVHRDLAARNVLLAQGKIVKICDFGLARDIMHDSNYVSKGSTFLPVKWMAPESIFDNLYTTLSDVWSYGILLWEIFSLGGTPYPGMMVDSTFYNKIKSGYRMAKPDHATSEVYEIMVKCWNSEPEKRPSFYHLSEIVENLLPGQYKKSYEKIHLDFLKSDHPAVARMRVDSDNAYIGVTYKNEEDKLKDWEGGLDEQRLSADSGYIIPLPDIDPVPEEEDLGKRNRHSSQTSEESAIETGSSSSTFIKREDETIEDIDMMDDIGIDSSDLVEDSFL
# Sequence of CDK5/p35 (Q00535 whole entry): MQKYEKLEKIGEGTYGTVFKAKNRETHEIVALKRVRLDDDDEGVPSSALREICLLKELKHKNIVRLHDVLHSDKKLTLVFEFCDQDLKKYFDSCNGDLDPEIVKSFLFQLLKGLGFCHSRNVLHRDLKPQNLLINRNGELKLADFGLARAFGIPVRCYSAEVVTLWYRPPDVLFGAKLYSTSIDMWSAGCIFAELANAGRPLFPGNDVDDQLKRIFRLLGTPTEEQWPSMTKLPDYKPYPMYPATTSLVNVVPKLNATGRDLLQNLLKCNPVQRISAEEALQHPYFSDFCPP
# Sequence of CDK5/p35 (Q15078 whole entry partner): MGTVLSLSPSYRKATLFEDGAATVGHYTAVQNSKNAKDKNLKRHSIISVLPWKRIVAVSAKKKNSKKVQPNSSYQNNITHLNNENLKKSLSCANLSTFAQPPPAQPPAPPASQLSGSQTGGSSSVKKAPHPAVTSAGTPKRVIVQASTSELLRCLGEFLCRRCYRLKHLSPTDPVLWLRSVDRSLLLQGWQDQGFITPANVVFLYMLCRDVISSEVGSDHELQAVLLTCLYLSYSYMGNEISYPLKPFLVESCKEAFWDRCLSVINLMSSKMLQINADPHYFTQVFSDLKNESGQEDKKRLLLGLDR
# Sequence of KDR (VEGFR2) (P35968 20-1356): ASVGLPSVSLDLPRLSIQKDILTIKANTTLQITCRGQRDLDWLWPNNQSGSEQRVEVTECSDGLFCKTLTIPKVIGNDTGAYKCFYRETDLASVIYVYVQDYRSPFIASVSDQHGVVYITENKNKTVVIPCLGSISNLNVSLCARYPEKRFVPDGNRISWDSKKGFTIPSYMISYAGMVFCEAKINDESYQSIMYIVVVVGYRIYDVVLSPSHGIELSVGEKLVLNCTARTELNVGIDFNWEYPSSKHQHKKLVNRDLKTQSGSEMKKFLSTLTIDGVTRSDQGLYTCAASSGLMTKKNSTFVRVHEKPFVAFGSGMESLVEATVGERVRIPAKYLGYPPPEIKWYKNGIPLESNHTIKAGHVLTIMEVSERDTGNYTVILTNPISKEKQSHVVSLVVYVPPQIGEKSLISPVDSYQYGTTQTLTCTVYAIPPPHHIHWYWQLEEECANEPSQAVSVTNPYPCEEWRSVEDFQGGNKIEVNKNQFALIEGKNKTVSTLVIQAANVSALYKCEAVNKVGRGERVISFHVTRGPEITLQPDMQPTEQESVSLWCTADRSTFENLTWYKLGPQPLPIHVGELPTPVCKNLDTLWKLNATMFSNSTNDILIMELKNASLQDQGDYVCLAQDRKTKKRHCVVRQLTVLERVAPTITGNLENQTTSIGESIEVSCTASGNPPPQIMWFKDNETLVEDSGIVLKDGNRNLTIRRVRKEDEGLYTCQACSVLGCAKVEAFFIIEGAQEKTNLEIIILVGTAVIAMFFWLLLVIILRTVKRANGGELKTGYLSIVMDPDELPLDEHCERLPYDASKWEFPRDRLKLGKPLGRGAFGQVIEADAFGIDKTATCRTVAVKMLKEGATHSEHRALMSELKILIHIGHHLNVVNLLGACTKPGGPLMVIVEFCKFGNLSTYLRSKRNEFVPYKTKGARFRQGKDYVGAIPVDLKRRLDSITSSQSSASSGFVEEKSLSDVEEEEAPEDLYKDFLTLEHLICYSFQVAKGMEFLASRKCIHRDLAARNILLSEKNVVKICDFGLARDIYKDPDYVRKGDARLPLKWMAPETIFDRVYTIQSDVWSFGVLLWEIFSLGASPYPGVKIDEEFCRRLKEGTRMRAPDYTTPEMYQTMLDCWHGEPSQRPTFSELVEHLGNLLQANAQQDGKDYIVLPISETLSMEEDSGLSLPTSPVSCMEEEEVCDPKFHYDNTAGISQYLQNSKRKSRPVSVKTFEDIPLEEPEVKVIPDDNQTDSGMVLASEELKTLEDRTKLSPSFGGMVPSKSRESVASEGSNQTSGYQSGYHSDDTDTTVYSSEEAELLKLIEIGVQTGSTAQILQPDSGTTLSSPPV
Structure (SMILES),inhibition at 10 µM (CDK5/p35; [1]) [%],inhibition at 10 µM (CDK5/p35; [2]) [%],inhibition at 10 µM (KDR (VEGFR2); [3]) [%],inhibition at 10 µM (KDR (VEGFR2); [4]) [%],inhibition at 10 µM (PDGFRA (PDGFR alpha); [5]) [%],inhibition at 10 µM (PDGFRA (PDGFR alpha); [6]) [%],inhibition at 10 µM (RET; [7]) [%],inhibition at 10 µM (RET; [8]) [%]
"CCc1nn(C)c2c1CCC(Nc1nc3c(-c4ccc(F)cc4C)cccn3n1)C2 (stereo not drawn) [Example 54, (3-Ethyl-1-methyl-4,5,6,7-tetrahydro-1H-indazol-6-yl)-[8-(4-fluoro-2-methyl-phenyl)-[1,2,4]triazolo[1,5-a]pyridine-2-yl]-amine]",< 40,18,< 40,5,< 40,30,< 40,15
"CCn1nnc2c1CCC(Nc1nc3c(-c4ccc(F)cc4C)cccn3n1)C2 (stereo not drawn) [Example 51, (1-Ethyl-4,5,6,7-tetrahydro-1H-benzotriazol-5-yl)-[8-(4-fluoro-2-methyl-phenyl)-[1,2,4]triazolo[1,5-a]pyridine-2-yl]-amine]",< 40,23,< 40,-10,< 40,14,< 40,2
"CCn1ncc2c1CC[C@@H](Nc1nc3c(-c4ccc(F)c(Cl)c4)cccn3n1)C2 [Example R-61, (R)-[8-(3-Chloro-4-fluoro-phenyl)-[1,2,4]triazolo[1,5-a]pyridine-2-yl]-(1-ethyl-4,5,6,7-tetrahydro-1H-indazol-5-yl)-amine]",< 40,25,< 40,2,< 40,18,< 40,20
"CCn1ncc2c1CCC(Nc1nc3c(-c4ccccc4C)cccn3n1)C2 (stereo not drawn) [Example 56, (1-Ethyl-4,5,6,7-tetrahydro-1H-indazol-5-yl)-[8-(2-methyl-phenyl)-[1,2,4]triazolo[1,5-a]pyridine-2-yl]-amine]",40 to 80,52,< 40,6,< 40,21,< 40,27
"CCn1ncc2c1CCC(Nc1nc3c(-c4cnccc4OC)cccn3n1)C2 (stereo not drawn) [Example 68, (1-Ethyl-4,5,6,7-tetrahydro-1H-indazol-5-yl)-[8-(4-methoxy-pyridin-3-yl)-[1,2,4]triazolo[1,5-a]pyridine-2-yl]-amine]",40 to 80,44,< 40,18,< 40,23,< 40,28
"CCn1ncc2c1CCC(Nc1nc3c(-c4ccc(C)nc4)cccn3n1)C2 (stereo not drawn) [Example 67, (1-Ethyl-4,5,6,7-tetrahydro-1H-indazol-5-yl)-[8-(6-methyl-pyridin-3-yl)-[1,2,4]triazolo[1,5-a]pyridine-2-yl]-amine]",< 40,35,< 40,15,< 40,20,< 40,24
